{"source": "ChEMBL document CHEMBL3046914", "about": "“Synthesis and anticancer effects of pongamol derivatives on mitogen signaling and cell cycle kinases” (Med Chem Res, 2012)", "key": {"[1]": {"tested_on": "IMR-32", "assay": "(§1) Cytotoxicity against Homo sapiens (human) IMR32 cells after 16 hr by MTT assay", "type": "functional, cell-based"}, "[2]": {"assay": "Cytotoxicity against fibroblasts"}, "[3]": {"tested_on": "IMR-32", "assay": "Cell cycle arrest in Homo sapiens (human) IMR32 cells assessed as decrease of G2-M phase cell accumulation at 20 to 200 uM by FACS analysis", "type": "functional, cell-based"}, "[4]": {"tested_on": "IMR-32", "assay": "Cell cycle arrest in Homo sapiens (human) IMR32 cells assessed as decrease of G1 phase cell accumulation at 20 to 200 uM by FACS analysis", "type": "functional, cell-based"}, "[5]": {"tested_on": "IMR-32", "assay": "Cytotoxicity against Homo sapiens (human) IMR32 cells at 20 to 200 uM after 16 hr by MTT assay", "type": "functional, cell-based"}, "[6]": {"tested_on": "HeLa", "assay": "Cytotoxicity against Homo sapiens (human) HeLa cells after 16 hr by MTT assay", "type": "functional"}, "[7]": {"tested_on": "IMR-32", "assay": "Cytotoxicity against Homo sapiens (human) IMR32 cells at 200 uM after 16 hr by MTT assay", "type": "functional"}, "[8]": {"target": "Cyclin-dependent kinase 2 (Homo sapiens) (UniProt P24941)", "assay": "Destabilization of CDK2 in Homo sapiens (human) IMR32 cells by immunoblot analysis", "type": "cell-based", "conditions": "IMR-32"}, "[9]": {"target": "Cyclin-dependent kinase 2 (Homo sapiens) (UniProt P24941)", "assay": "Destabilization of CDK2 in Homo sapiens (human) HeLa cells by immunoblot analysis", "type": "cell-based"}, "[10]": {"target": "Cyclin-dependent kinase 2 (Homo sapiens) (UniProt P24941)", "assay": "Destabilization of CDK2 in Homo sapiens (human) Jurkat cells by immunoblot analysis", "type": "cell-based"}, "[11]": {"target": "Mitogen-activated protein kinase 3 (Homo sapiens) (UniProt P27361)", "sequence (P27361 whole entry)": "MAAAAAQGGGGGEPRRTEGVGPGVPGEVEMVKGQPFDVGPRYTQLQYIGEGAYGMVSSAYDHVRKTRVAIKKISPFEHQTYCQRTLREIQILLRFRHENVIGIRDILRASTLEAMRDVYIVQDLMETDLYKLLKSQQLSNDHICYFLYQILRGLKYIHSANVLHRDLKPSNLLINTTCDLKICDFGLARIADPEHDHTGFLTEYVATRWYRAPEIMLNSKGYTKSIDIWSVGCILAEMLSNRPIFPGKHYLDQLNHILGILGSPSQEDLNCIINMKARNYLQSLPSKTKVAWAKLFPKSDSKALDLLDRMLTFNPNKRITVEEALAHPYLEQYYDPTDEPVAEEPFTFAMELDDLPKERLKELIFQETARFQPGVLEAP", "assay": "Destabilization of ERK1 in Homo sapiens (human) HeLa cells by immunoblot analysis", "type": "cell-based"}, "[12]": {"species_on_record": "Homo sapiens", "assay": "Inhibition of tyrosine kinase (unknown origin)"}, "[13]": {"tested_on": "HeLa", "assay": "Cell cycle arrest in Homo sapiens (human) HeLa cells assessed as decrease of G2-M phase cell accumulation at 20 to 200 uM by FACS analysis", "type": "functional, cell-based"}, "[14]": {"tested_on": "Jurkat", "assay": "Cell cycle arrest in Homo sapiens (human) Jurkat cells assessed as decrease of G2-M phase cell accumulation at 20 to 200 uM by FACS analysis", "type": "functional, cell-based"}, "[15]": {"tested_on": "HeLa", "assay": "Cell cycle arrest in Homo sapiens (human) HeLa cells assessed as decrease of G1 phase cell accumulation at 20 to 200 uM by FACS analysis", "type": "functional, cell-based"}, "[16]": {"tested_on": "Jurkat", "assay": "Cell cycle arrest in Homo sapiens (human) Jurkat cells assessed as decrease of G1 phase cell accumulation at 20 to 200 uM by FACS analysis", "type": "functional, cell-based"}, "[17]": {"tested_on": "Jurkat", "assay": "Cytotoxicity against Homo sapiens (human) Jurkat cells after 16 hr by MTT assay", "type": "functional"}, "[18]": {"tested_on": "IMR-32", "assay": "as §1", "type": "functional"}, "[19]": {"tested_on": "IMR-32", "assay": "Induction of endoplasmic reticulum stress in Homo sapiens (human) IMR32 cells assessed as Grp94 expression by immunoblot analysis", "type": "functional, cell-based"}, "[20]": {"tested_on": "HeLa", "assay": "Induction of endoplasmic reticulum stress in Homo sapiens (human) HeLa cells assessed as Grp94 expression by immunoblot analysis", "type": "functional, cell-based"}, "[21]": {"tested_on": "Jurkat", "assay": "Induction of endoplasmic reticulum stress in Homo sapiens (human) Jurkat cells assessed as Grp94 expression by immunoblot analysis", "type": "functional, cell-based"}, "[22]": {"target": "Mitogen-activated protein kinase 3 (Homo sapiens) (UniProt P27361)", "assay": "Destabilization of ERK1 in Homo sapiens (human) IMR32 cells by immunoblot analysis", "type": "cell-based", "conditions": "IMR-32"}, "[23]": {"target": "Mitogen-activated protein kinase 3 (Homo sapiens) (UniProt P27361)", "assay": "Destabilization of ERK1 in Homo sapiens (human) Jurkat cells by immunoblot analysis", "type": "cell-based"}}, "note": "The source made the active and inactive calls. The calls are words filed in the database; no cut-off is given here.", "data": [{"smiles": "COc1c(-c2cc(-c3ccccc3)n(-c3ccccc3C)n2)ccc2occc12", "values": [{"measurement": "Activity", "setting": "[1]", "result": "Dose-dependent effect"}, {"measurement": "Activity", "setting": "[2]", "result": "Non-toxic"}, {"measurement": "Activity", "setting": "[3]", "result": "inactive"}, {"measurement": "Activity", "setting": "[4]", "result": "Active"}]}, {"smiles": "COc1c(-c2cc(-c3ccccc3)n(-c3cccc([N+](=O)[O-])c3)n2)ccc2occc12", "values": [{"measurement": "Activity", "setting": "[1]", "result": "Dose-dependent effect"}, {"measurement": "Activity", "setting": "[2]", "result": "Non-toxic"}, {"measurement": "Activity", "setting": "[3]", "result": "inactive"}]}, {"smiles": "COc1c(-c2cc(-c3ccccc3)n(-c3ccc(Cl)cc3Cl)n2)ccc2occc12", "values": [{"measurement": "Activity", "setting": "[5]", "result": "inactive"}, {"measurement": "Activity", "setting": "[2]", "result": "Non-toxic"}, {"measurement": "Activity", "setting": "[3]", "result": "inactive"}]}, {"smiles": "COc1c(-c2cc(-c3ccccc3)n(-c3ccccc3F)n2)ccc2occc12", "values": [{"measurement": "Activity", "setting": "[6]", "result": 35, "unit": "%"}, {"measurement": "Activity", "setting": "[7]", "result": 60, "unit": "%"}, {"measurement": "Activity", "setting": "[1]", "result": "Dose-dependent effect"}, {"measurement": "Activity", "setting": "[2]", "result": "Non-toxic"}, {"measurement": "Activity", "setting": "[8]", "result": "Active"}, {"measurement": "Activity", "setting": "[9]", "result": "Active"}, {"measurement": "Activity", "setting": "[10]", "result": "Active"}, {"measurement": "Activity", "setting": "[11]", "result": "Active"}, {"measurement": "inhibition", "setting": "[12]", "result": "inactive"}, {"measurement": "Activity", "setting": "[13]", "result": "Active"}, {"measurement": "Activity", "setting": "[14]", "result": "Active"}, {"measurement": "Activity", "setting": "[15]", "result": "Active"}, {"measurement": "Activity", "setting": "[16]", "result": "Active"}, {"measurement": "Activity", "setting": "[17]", "result": 45, "unit": "%"}, {"measurement": "Activity", "setting": "[18]", "result": 71, "unit": "%"}, {"measurement": "Activity", "setting": "[3]", "result": "inactive"}, {"measurement": "Activity", "setting": "[4]", "result": "Active"}]}, {"smiles": "COc1c(-c2cc(-c3ccccc3)n(-c3ccc(F)cc3)n2)ccc2occc12", "values": [{"measurement": "Activity", "setting": "[1]", "result": "Dose-dependent effect"}, {"measurement": "Activity", "setting": "[2]", "result": "Non-toxic"}, {"measurement": "Activity", "setting": "[3]", "result": "inactive"}]}, {"smiles": "COc1c(-c2cc(-c3ccccc3)[nH]n2)ccc2occc12", "values": [{"measurement": "Activity", "setting": "[1]", "result": "Dose-dependent effect"}, {"measurement": "Activity", "setting": "[2]", "result": "Non-toxic"}, {"measurement": "Activity", "setting": "[3]", "result": "inactive"}]}, {"smiles": "COc1c(-c2cc(-c3ccccc3)n(-c3ccccc3)n2)ccc2occc12", "values": [{"measurement": "Activity", "setting": "[5]", "result": "inactive"}, {"measurement": "Activity", "setting": "[2]", "result": "Non-toxic"}, {"measurement": "Activity", "setting": "[3]", "result": "inactive"}]}, {"smiles": "COc1c(-c2cc(-c3ccccc3)n(-c3cccc(F)c3)n2)ccc2occc12", "values": [{"measurement": "Activity", "setting": "[6]", "result": 28, "unit": "%"}, {"measurement": "Activity", "setting": "[7]", "result": 60, "unit": "%"}, {"measurement": "Activity", "setting": "[1]", "result": "Dose-dependent effect"}, {"measurement": "Activity", "setting": "[2]", "result": "Non-toxic"}, {"measurement": "Activity", "setting": "[19]", "result": "Active"}, {"measurement": "Activity", "setting": "[20]", "result": "Active"}, {"measurement": "Activity", "setting": "[21]", "result": "Active"}, {"measurement": "Activity", "setting": "[8]", "result": "Active"}, {"measurement": "Activity", "setting": "[9]", "result": "Active"}, {"measurement": "Activity", "setting": "[10]", "result": "Active"}, {"measurement": "Activity", "setting": "[22]", "result": "Active"}, {"measurement": "inhibition", "setting": "[12]", "result": "inactive"}, {"measurement": "Activity", "setting": "[13]", "result": "Active"}, {"measurement": "Activity", "setting": "[14]", "result": "Active"}, {"measurement": "Activity", "setting": "[15]", "result": "Active"}, {"measurement": "Activity", "setting": "[16]", "result": "Active"}, {"measurement": "Activity", "setting": "[17]", "result": 35, "unit": "%"}, {"measurement": "Activity", "setting": "[18]", "result": 86, "unit": "%"}, {"measurement": "Activity", "setting": "[3]", "result": "Active"}, {"measurement": "Activity", "setting": "[4]", "result": "Active"}]}, {"smiles": "COc1ccc(-n2nc(-c3ccc4occc4c3OC)cc2-c2ccccc2)cc1", "values": [{"measurement": "Activity", "setting": "[5]", "result": "inactive"}, {"measurement": "Activity", "setting": "[2]", "result": "Non-toxic"}, {"measurement": "Activity", "setting": "[3]", "result": "inactive"}]}, {"smiles": "COc1c(-c2cc(-c3ccccc3)on2)ccc2occc12", "values": [{"measurement": "Activity", "setting": "[6]", "result": 26, "unit": "%"}, {"measurement": "Activity", "setting": "[7]", "result": 60, "unit": "%"}, {"measurement": "Activity", "setting": "[1]", "result": "Dose-dependent effect"}, {"measurement": "Activity", "setting": "[2]", "result": "Non-toxic"}, {"measurement": "Activity", "setting": "[8]", "result": "Active"}, {"measurement": "Activity", "setting": "[9]", "result": "Active"}, {"measurement": "Activity", "setting": "[10]", "result": "Active"}, {"measurement": "Activity", "setting": "[22]", "result": "Active"}, {"measurement": "Activity", "setting": "[11]", "result": "Active"}, {"measurement": "Activity", "setting": "[23]", "result": "Active"}, {"measurement": "inhibition", "setting": "[12]", "result": "inactive"}, {"measurement": "Activity", "setting": "[13]", "result": "Active"}, {"measurement": "Activity", "setting": "[14]", "result": "Active"}, {"measurement": "Activity", "setting": "[15]", "result": "Active"}, {"measurement": "Activity", "setting": "[16]", "result": "Active"}, {"measurement": "Activity", "setting": "[17]", "result": 31, "unit": "%"}, {"measurement": "Activity", "setting": "[18]", "result": 58, "unit": "%"}, {"measurement": "Activity", "setting": "[3]", "result": "Active"}, {"measurement": "Activity", "setting": "[4]", "result": "Active"}]}, {"smiles": "COc1c(-c2cc(-c3ccccc3)n(-c3ccc([N+](=O)[O-])cc3[N+](=O)[O-])n2)ccc2occc12", "values": [{"measurement": "Activity", "setting": "[1]", "result": "Dose-dependent effect"}, {"measurement": "Activity", "setting": "[2]", "result": "Non-toxic"}, {"measurement": "Activity", "setting": "[3]", "result": "inactive"}]}, {"smiles": "COc1c(-c2cc(-c3ccccc3)n(-c3ccc(C)cc3C)n2)ccc2occc12", "values": [{"measurement": "Activity", "setting": "[5]", "result": "inactive"}, {"measurement": "Activity", "setting": "[2]", "result": "Non-toxic"}, {"measurement": "Activity", "setting": "[3]", "result": "inactive"}]}, {"smiles": "COc1c(C(=O)/C=C(\\O)c2ccccc2)ccc2occc12", "note": "[PONGAMOL]", "values": [{"measurement": "Activity", "setting": "[6]", "result": 23, "unit": "%"}, {"measurement": "Activity", "setting": "[5]", "result": "inactive"}, {"measurement": "Activity", "setting": "[2]", "result": "Non-toxic"}, {"measurement": "Activity", "setting": "[19]", "result": "Active"}, {"measurement": "Activity", "setting": "[20]", "result": "Active"}, {"measurement": "Activity", "setting": "[21]", "result": "Active"}, {"measurement": "inhibition", "setting": "[12]", "result": "inactive"}, {"measurement": "Activity", "setting": "[13]", "result": "Active"}, {"measurement": "Activity", "setting": "[14]", "result": "Active"}, {"measurement": "Activity", "setting": "[15]", "result": "Active"}, {"measurement": "Activity", "setting": "[16]", "result": "Active"}, {"measurement": "Activity", "setting": "[17]", "result": 17, "unit": "%"}, {"measurement": "Activity", "setting": "[18]", "result": 38, "unit": "%"}, {"measurement": "Activity", "setting": "[3]", "result": "Active"}]}]}
